The NIST ThermoML archive (doi:10.1016/j.jct.2010.08.010)

Details: Liquid, Buoyancy - hydrostatic balance with magnetic suspension - one sinker

CCO [ethanol]
Details | mass density [kg/m3]
353.15 K, 5946.1 kPa | 742.072
353.15 K, 8005.6 kPa | 744.473
353.15 K, 10092 kPa | 746.834
353.15 K, 12108 kPa | 749.042
353.15 K, 14010 kPa | 751.074
353.15 K, 16061 kPa | 753.214
353.15 K, 18136 kPa | 755.321
353.15 K, 20137 kPa | 757.302
353.15 K, 22100 kPa | 759.195
353.15 K, 24062 kPa | 761.047
353.15 K, 26069 kPa | 762.906
353.15 K, 28075 kPa | 764.73
353.15 K, 30016 kPa | 766.442
373.15 K, 1102.9 kPa | 715.263
373.15 K, 2003.4 kPa | 716.613
373.15 K, 4088.3 kPa | 719.636
373.15 K, 6108.7 kPa | 722.45
373.15 K, 8076 kPa | 725.091
373.15 K, 10096 kPa | 727.71
373.15 K, 12124 kPa | 730.256
373.15 K, 14044 kPa | 732.583
373.15 K, 16078 kPa | 734.983
373.15 K, 18122 kPa | 737.319
373.15 K, 20098 kPa | 739.516
373.15 K, 22116 kPa | 741.702
373.15 K, 24049 kPa | 743.742
373.15 K, 26068 kPa | 745.822
373.15 K, 28108 kPa | 747.871
373.15 K, 29942 kPa | 749.678
393.15 K, 1102.9 kPa | 691.923
393.15 K, 2003.6 kPa | 693.559
393.15 K, 3981 kPa | 697.012
393.15 K, 6085.6 kPa | 700.514
393.15 K, 8006.1 kPa | 703.56
393.15 K, 10040 kPa | 706.659
393.15 K, 12072 kPa | 709.623
393.15 K, 14119 kPa | 712.504
393.15 K, 16086 kPa | 715.168
393.15 K, 18081 kPa | 717.782
393.15 K, 19900 kPa | 720.097
393.15 K, 22039 kPa | 722.726
393.15 K, 24041 kPa | 725.121
393.15 K, 26092 kPa | 727.505
393.15 K, 28070 kPa | 729.738
393.15 K, 29851 kPa | 731.71
413.15 K, 1102.6 kPa | 665.097
413.15 K, 2002.8 kPa | 667.194
413.15 K, 4113.3 kPa | 671.781
413.15 K, 6094.1 kPa | 675.838
413.15 K, 8091.5 kPa | 679.694
413.15 K, 10044 kPa | 683.283
413.15 K, 11973 kPa | 686.66
413.15 K, 14085 kPa | 690.174
413.15 K, 16053 kPa | 693.316
413.15 K, 18080 kPa | 696.427
413.15 K, 20003 kPa | 699.262
413.15 K, 22069 kPa | 702.204
413.15 K, 24049 kPa | 704.916
413.15 K, 26035 kPa | 707.559
413.15 K, 27916 kPa | 709.988
413.15 K, 30021 kPa | 712.618
433.15 K, 2003.3 kPa | 636.052
433.15 K, 4004.9 kPa | 641.895
433.15 K, 6117.7 kPa | 647.513
433.15 K, 7970.2 kPa | 652.088
433.15 K, 10076 kPa | 656.927
433.15 K, 12092 kPa | 661.27
433.15 K, 14024 kPa | 665.195
433.15 K, 16095 kPa | 669.184
433.15 K, 17956 kPa | 672.597
433.15 K, 20025 kPa | 676.22
433.15 K, 22076 kPa | 679.658
433.15 K, 23970 kPa | 682.703
433.15 K, 26097 kPa | 685.993
433.15 K, 27971 kPa | 688.786
433.15 K, 29931 kPa | 691.61
453.15 K, 2000.7 kPa | 597.505
453.15 K, 4003.1 kPa | 606.126
453.15 K, 5998.3 kPa | 613.615
453.15 K, 7995.3 kPa | 620.308
453.15 K, 10007 kPa | 626.429
453.15 K, 12086 kPa | 632.177
453.15 K, 14048 kPa | 637.222
453.15 K, 15954 kPa | 641.798
453.15 K, 17939 kPa | 646.288
453.15 K, 20012 kPa | 650.704
453.15 K, 22018 kPa | 654.751
453.15 K, 24140 kPa | 658.813
453.15 K, 25982 kPa | 662.178
453.15 K, 28127 kPa | 665.939
453.15 K, 30017 kPa | 669.115
473.15 K, 4002.6 kPa | 562.328
473.15 K, 6007.1 kPa | 573.872
473.15 K, 8001.4 kPa | 583.438
473.15 K, 10006 kPa | 591.752
473.15 K, 12009 kPa | 599.085
473.15 K, 14093 kPa | 605.96
473.15 K, 15977 kPa | 611.66
473.15 K, 18013 kPa | 617.325
473.15 K, 20010 kPa | 622.485
473.15 K, 21973 kPa | 627.259
473.15 K, 24020 kPa | 631.94
473.15 K, 25868 kPa | 635.925
473.15 K, 28002 kPa | 640.289
473.15 K, 30014 kPa | 644.229
